Biological target: MLL1-WDR5 protein-protein interaction (Homo sapiens (Human), UniProt P61964)
Assay: WDR5 TR-FRET assay (MLL1-WDR5 PPI inhibition)
Type: binding
Conditions: 5 nM WDR5 protein, 10 nM peptide, read-out: IC50 (nM), MLL1-WDR5 PPI inhibitory activity
Procedure: WDR5 TR-FRET Assay Procedure: Stock compounds were transferred to the assay plate by Echo Liquid Handler. […] Stock compounds were incubated with WDR5 protein for 30 min at room temperature. Plates were covered, protected from light and incubated for 60 min at room temperature, after adding the peptide and Tb-Ab. EnVision Multimode Plate Reader (PerkinElmer) was used for the TR-FRET assay with excitation wavelength at 340 nm and emission wavelength at 495 and 520 nm. The ratio of the 520/495 wavelengths were used to assess the degree of the FRET signal. IC50 was calculated by fitting the inhibition data using XLfit software to sigmoidal dose-response model.

Going from `C[C@@H]1CN(c2cc(F)c(-n3cc(C(=O)N4CCN(C)CC4)nn3)cc2NC(=O)c2cnc(Cl)cc2Cl)C[C@H](C)N1C` [Example 57, 4,6-dichloro-N-(4-fluoro-5-(4-(4-methylpiperazine-1-carbonyl)-1H-1,2,3-triazol-1-yl)-2-((3S,5R)-3,4,5-trimethylpiperazin-1-yl)phenyl)nicotinamide] to `C[C@@H]1CN(c2cc(F)c(-n3cc(C(=O)NC4CCN(C)CC4)nn3)cc2NC(=O)c2cnc(C(F)(F)F)cc2Cl)C[C@H](C)N1C` [Example 58, 4-chloro-N-(4-fluoro-5-(4-((1-methylpiperidin-4-yl)carbamoyl)-1H-1,2,3-triazol-1-yl)-2-((3S,5R)-3,4,5-trimethylpiperazin-1-yl)phenyl)-6-(trifluoromethyl)nicotinamide], the IC50 rises from 2170 nM to greater than 10000 nM. The first is the more potent here.

First: C[C@@H]1CN(c2cc(F)c(-n3cc(C(=O)NCCCN4CCOCC4)nn3)cc2NC(=O)c2cnc(Cl)cc2C(F)(F)F)C[C@H](C)N1C [Example 5, 6-chloro-N-(4-fluoro-5-(4-((3-morpholinopropyl)carbamoyl)-1H-1,2,3-triazol-1-yl)-2-((3S,5R)-3,4,5-trimethylpiperazin-1-yl)phenyl)-4-(trifluoromethyl)nicotinamide]
Second: CN1CCN(c2cc(F)c(-n3cc(C(=O)NCCCN4CCOCC4)nn3)cc2NC(=O)c2cnc(Cl)cc2C(F)(F)F)CC1 [Example 7, 6-chloro-N-(4-fluoro-2-(4-methylpiperazin-1-yl)-5-(4-((3-morpholinopropyl)carbamoyl)-1H-1,2,3-triazol-1-yl)phenyl)-4-(trifluoromethyl)nicotinamide]
The IC50 of the first is lower: 7270 nM for the first, greater than 10000 nM for the second. The first is the more potent here.

Going from `CSc1cc(C(F)(F)F)c(C(=O)Nc2cc(-n3cc(C(=O)NCCCN4CCOCC4)nn3)ccc2N2CCN(C)CC2)cn1` [Example 14, N-[2-(4-methylpiperazin-1-yl)-5-[4-(3-morpholinopropylcarbamoyl)triazol-1-yl]phenyl]-6-methylsulfanyl-4-(trifluoromethyl)pyridine-3-carboxamide] to `CN1CCN(c2ccc(-n3cc(C(=O)NCCCN4CCOCC4)nn3)cc2NC(=O)c2cnc(F)cc2C(F)(F)F)CC1` [Example 11, 6-fluoro-N-(2-(4-methylpiperazin-1-yl)-5-(4-((3-morpholinopropyl)carbamoyl)-1H-1,2,3-triazol-1-yl)phenyl)-4-(trifluoromethyl)nicotinamide], the IC50 falls from greater than 10000 nM to 4230 nM.

Going from `CN1CCN(c2ccc(-n3cc(C(=O)NCCCN4CCOCC4)nn3)cc2NC(=O)c2cnc(Cl)cc2N)CC1` [Example 22, 4-amino-6-chloro-N-(2-(4-methylpiperazin-1-yl)-5-(4-((3-morpholinopropyl)carbamoyl)-1H-1,2,3-triazol-1-yl)phenyl)nicotinamide] to `Cc1cc(Cl)c(C(=O)Nc2cc(-n3cc(C(=O)NCCCN4CCOCC4)nn3)ccc2N2CCN(C)CC2)cc1N` [Example 49, 1-(3-(5-amino-2-chloro-4-methylbenzamido)-4-(4-methylpiperazin-1-yl)phenyl)-N-(3-morpholinopropyl)-1H-1,2,3-triazole-4-carboxamide], the IC50 falls from greater than 10000 nM to 4370 nM. The second is the more potent here.

First: C[C@H]1CN(c2ccc(-n3cc(C(=O)NCCCN4CCOCC4)nn3)cc2NC(=O)c2c[nH]c(=O)cc2C(F)(F)F)CCN1C [Example 10, (S)-N-(2-(3,4-dimethylpiperazin-1-yl)-5-(4-((3-morpholinopropyl)carbamoyl)-1H-1,2,3-triazol-1-yl)phenyl)-6-oxo-4-(trifluoromethyl)-1,6-dihydropyridine-3-carboxamide]
Second: C[C@@H]1CN(c2ccc(-n3cc(C(=O)NCCCN4CCOCC4)nn3)cc2NC(=O)c2c[nH]c(=O)cc2C(F)(F)F)C[C@H](C)N1C [Example 2, N-(5-(4-((3-morpholinopropyl)carbamoyl)-1H-1,2,3-triazol-1-yl)-2-((3S,5R)-3,4,5-trimethylpiperazin-1-yl)phenyl)-6-oxo-4-(trifluoromethyl)-1,6-dihydropyridine-3-carboxamide]
The IC50 of the first is 1.8-fold lower: 9.12 nM for the first, 16.7 nM for the second. The first is the more potent here.

`CN1CCN(c2ccc(-n3cc(C(=O)NCCCN4CCOCC4)nn3)cc2NC(=O)c2ncc(Cl)nc2Cl)CC1` [Example 34, 3,5-dichloro-N-[2-(4-methylpiperazin-1-yl)-5-[4-(3-morpholinopropylcarbamoyl)triazol-1-yl]phenyl]pyrazine-2-carboxamide] and `CN1CCN(c2ccc(-n3cc(C(=O)NCCCN4CCOCC4)nn3)cc2NC(=O)c2nnc(Cl)cc2Cl)CC1` [Example 32, 4,6-dichloro-N-(2-(4-methylpiperazin-1-yl)-5-(4-((3-morpholinopropyl)carbamoyl)-1H-1,2,3-triazol-1-yl)phenyl)pyridazine-3-carboxamide] cannot be ordered by IC50: greater than 10000 nM for the first, greater than 10000 nM for the second.

Compared with `CN1CCN(c2ccc(-n3cc(C(=O)NCCCN4CCOCC4)nn3)cc2NC(=O)c2ccc(Cl)cc2C(F)(F)F)CC1` [Example 46, 1-(3-(4-chloro-2-(trifluoromethyl)benzamido)-4-(4-methylpiperazin-1-yl)phenyl)-N-(3-morpholinopropyl)-1H-1,2,3-triazole-4-carboxamide], `CCOc1cc(C(F)(F)F)c(C(=O)Nc2cc(-n3cc(C(=O)NCCCN4CCOCC4)nn3)ccc2N2CCN(C)CC2)cn1` [Example 17, 6-ethoxy-N-(2-(4-methylpiperazin-1-yl)-5-(4-((3-morpholinopropyl)carbamoyl)-1H-1,2,3-triazol-1-yl)phenyl)-4-(trifluoromethyl)nicotinamide] is higher in IC50: 458 nM for the first, greater than 10000 nM for the second. The first is the more potent here.

Compared with `Cc1c(Cl)ncc(C(=O)Nc2cc(-n3cc(C(=O)NCCCN4CCOCC4)nn3)ccc2N2CCN(C)CC2)c1Cl` [Example 21, 4,6-dichloro-5-methyl-N-(2-(4-methylpiperazin-1-yl)-5-(4-((3-morpholinopropyl)carbamoyl)-1H-1,2,3-triazol-1-yl)phenyl)nicotinamide], `Cc1ncc(C(=O)Nc2cc(-n3cc(C(=O)NCCCN4CCOCC4)nn3)ccc2N2CCN(C)CC2)c(C(F)(F)F)n1` [Example 26, 2-methyl-N-(2-(4-methylpiperazin-1-yl)-5-(4-((3-morpholinopropyl)carbamoyl)-1H-1,2,3-triazol-1-yl)phenyl)-4-(trifluoromethyl)pyrimidine-5-carboxamide] is higher in IC50: 6570 nM for the first, greater than 10000 nM for the second. The first is the more potent here.

`C[C@H]1CN(c2ccc(-n3cc(C(=O)NCCCN4CCOCC4)nn3)cc2NC(=O)c2cnc(Cl)cc2C(F)(F)F)CCN1C` [Example 9, (S)-6-chloro-N-(2-(3,4-dimethylpiperazin-1-yl)-5-(4-((3-morpholinopropyl)carbamoyl)-1H-1,2,3-triazol-1-yl)phenyl)-4-(trifluoromethyl)nicotinamide] and `Cc1cc(Cl)c(C(=O)Nc2cc(-n3cc(C(=O)NCCCN4CCOCC4)nn3)ccc2N2CCN(C)CC2)cc1[N+](=O)[O-]` [Example 48, 1-[3-[(2-chloro-4-methyl-5-nitro-benzoyl)amino]-4-(4-methylpiperazin-1-yl)phenyl]-N-(3-morpholinopropyl)triazole-4-carboxamide] cannot be ordered by IC50: greater than 10000 nM for the first, greater than 10000 nM for the second.

For `C[C@@H]1CN(c2cc(F)c(-n3cc(C(=O)NC4CCN(C)CC4)nn3)cc2NC(=O)c2cnc(Cl)cc2C(F)(F)F)C[C@H](C)N1C` [Example 52, 6-chloro-N-(4-fluoro-5-(4-((1-methylpiperidin-4-yl)carbamoyl)-1H-1,2,3-triazol-1-yl)-2-((3S,5R)-3,4,5-trimethylpiperazin-1-yl)phenyl)-4-(trifluoromethyl)nicotinamide], the IC50 was 287 nM.

From patent US20230286948A1 (HUYABIO International, LLC, priority 2022, published 2023)
